Calls of active or inactive are those of the source. The rule behind the calls is not given here.
Experiments:
[1] = Cytotoxicity against HEK293T cells assessed as inhibition of cell growth incubated for 72 hrs by MTT assay; type: toxicity, cell-based, HEK-293T; conditions: human
[2] = Cytotoxicity against human GES1 cells assessed as inhibition of cell growth incubated for 72 hrs by MTT assay; type: toxicity, cell-based
[3] = target: T1, von Hippel-Lindau disease tumor suppressor/Vascular endothelial growth factor receptor 2 (Homo sapiens, UniProt P35968+P40337); test: PROTAC activity at VHL/VEGFR2 in human HGC-27 cells assessed as reduction in VEGFR2 protein level by measuring maximal efficacy at 0.15 uM incubated for 24 hrs by Western blot analysis relative to control; type: cell-based
Target sequence in this assay (P35968 20-1356 limits assumed): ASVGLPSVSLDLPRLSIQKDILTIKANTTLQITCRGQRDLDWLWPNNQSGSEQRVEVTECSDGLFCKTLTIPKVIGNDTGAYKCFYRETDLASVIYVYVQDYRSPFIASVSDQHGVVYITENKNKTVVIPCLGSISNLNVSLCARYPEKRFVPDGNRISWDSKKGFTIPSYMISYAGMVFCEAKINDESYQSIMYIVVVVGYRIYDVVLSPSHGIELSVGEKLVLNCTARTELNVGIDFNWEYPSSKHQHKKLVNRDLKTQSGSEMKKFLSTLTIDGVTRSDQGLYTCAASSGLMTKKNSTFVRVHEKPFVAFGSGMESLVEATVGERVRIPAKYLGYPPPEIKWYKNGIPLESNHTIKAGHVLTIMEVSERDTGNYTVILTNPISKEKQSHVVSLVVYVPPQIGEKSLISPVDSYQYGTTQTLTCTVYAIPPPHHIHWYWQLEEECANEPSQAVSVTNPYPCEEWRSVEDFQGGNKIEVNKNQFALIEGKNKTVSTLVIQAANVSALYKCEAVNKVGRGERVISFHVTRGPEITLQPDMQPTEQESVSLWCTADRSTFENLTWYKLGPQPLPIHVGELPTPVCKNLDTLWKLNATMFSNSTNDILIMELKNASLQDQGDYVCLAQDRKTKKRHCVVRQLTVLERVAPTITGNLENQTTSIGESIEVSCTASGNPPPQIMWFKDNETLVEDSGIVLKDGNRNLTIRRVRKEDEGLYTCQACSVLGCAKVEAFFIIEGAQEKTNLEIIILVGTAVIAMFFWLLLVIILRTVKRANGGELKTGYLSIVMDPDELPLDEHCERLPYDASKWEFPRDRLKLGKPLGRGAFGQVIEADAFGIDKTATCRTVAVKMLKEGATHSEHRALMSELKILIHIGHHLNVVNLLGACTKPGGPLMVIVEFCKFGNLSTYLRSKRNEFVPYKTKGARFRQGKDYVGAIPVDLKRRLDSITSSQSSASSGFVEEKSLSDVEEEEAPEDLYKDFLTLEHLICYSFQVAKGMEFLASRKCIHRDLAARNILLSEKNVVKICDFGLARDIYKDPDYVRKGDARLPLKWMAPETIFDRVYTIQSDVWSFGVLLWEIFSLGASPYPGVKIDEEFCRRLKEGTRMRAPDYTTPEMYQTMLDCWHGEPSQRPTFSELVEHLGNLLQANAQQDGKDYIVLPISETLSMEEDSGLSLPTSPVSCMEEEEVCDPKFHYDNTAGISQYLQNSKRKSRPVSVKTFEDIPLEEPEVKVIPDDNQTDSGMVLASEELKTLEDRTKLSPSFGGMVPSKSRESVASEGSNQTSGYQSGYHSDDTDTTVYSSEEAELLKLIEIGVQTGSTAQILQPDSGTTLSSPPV
Target sequence in this assay (P40337 whole entry partner): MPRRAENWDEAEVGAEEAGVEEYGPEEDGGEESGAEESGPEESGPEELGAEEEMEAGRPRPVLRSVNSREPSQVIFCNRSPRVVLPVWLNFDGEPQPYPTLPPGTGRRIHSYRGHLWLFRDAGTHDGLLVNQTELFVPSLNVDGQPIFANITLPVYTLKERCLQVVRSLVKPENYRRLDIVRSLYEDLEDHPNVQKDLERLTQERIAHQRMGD

[4] = target: T1, von Hippel-Lindau disease tumor suppressor/Vascular endothelial growth factor receptor 2; test: PROTAC activity at VHL/VEGFR2 in HUVEC cells assessed as reduction in VEGFR2 protein level incubated for 24 hrs by Western blot analysis; type: cell-based
[5] = target: T1, von Hippel-Lindau disease tumor suppressor/Vascular endothelial growth factor receptor 2; test: PROTAC activity at VHL/VEGFR2 in HUVEC cells assessed as reduction in VEGFR2 protein level by measuring maximal efficacy at 0.007 to 10 uM incubated for 24 hrs by Western blot analysis relative to control; type: cell-based; conditions: dose 0.007-10 µM
Target sequence in this assay (P35968 20-1356 limits assumed): as the sequence (P35968 20-1356 limits assumed) above
Target sequence in this assay (P40337 whole entry partner): as the sequence (P40337 whole entry partner) above

[6] = target: T1, von Hippel-Lindau disease tumor suppressor/Vascular endothelial growth factor receptor 2; test: PROTAC activity at VHL/VEGFR2 in human HGC-27 cells assessed as reduction in VEGFR2 protein level at 1 uM by Western blot analysis; type: cell-based; conditions: time 12-36 hrs, TDE = time-dependent effect
Target sequence in this assay (P35968 20-1356 limits assumed): as the sequence (P35968 20-1356 limits assumed) above
Target sequence in this assay (P40337 whole entry partner): as the sequence (P40337 whole entry partner) above

[7] = target: T1, von Hippel-Lindau disease tumor suppressor/Vascular endothelial growth factor receptor 2; test: PROTAC activity at VHL/VEGFR2 in human HGC-27 cells assessed as induction of VEGFR2 degradation at 1 uM measured after 12 hrs by Western blot analysis relative to control; type: cell-based
Target sequence in this assay (P35968 20-1356 limits assumed): as the sequence (P35968 20-1356 limits assumed) above
Target sequence in this assay (P40337 whole entry partner): as the sequence (P40337 whole entry partner) above

[8] = target: T1, von Hippel-Lindau disease tumor suppressor/Vascular endothelial growth factor receptor 2; test: PROTAC activity at VHL/VEGFR2 in human HGC-27 cells assessed as induction of VEGFR2 degradation at 1 uM measured after 24 hrs by Western blot analysis relative to control; type: cell-based
Target sequence in this assay (P35968 20-1356 limits assumed): as the sequence (P35968 20-1356 limits assumed) above
Target sequence in this assay (P40337 whole entry partner): as the sequence (P40337 whole entry partner) above

[9] = target: T1, von Hippel-Lindau disease tumor suppressor/Vascular endothelial growth factor receptor 2; test: PROTAC activity at VHL/VEGFR2 in human HGC-27 cells assessed as induction of VEGFR2 degradation at 1 uM measured after 36 hrs by Western blot analysis relative to control; type: cell-based
Target sequence in this assay (P35968 20-1356 limits assumed): as the sequence (P35968 20-1356 limits assumed) above
Target sequence in this assay (P40337 whole entry partner): as the sequence (P40337 whole entry partner) above

[10] = target: T1, von Hippel-Lindau disease tumor suppressor/Vascular endothelial growth factor receptor 2; test: PROTAC activity at VHL/VEGFR2 in human HGC-27 cells assessed as residual activity by measuring VEGFR2 expression level at 1 uM incubated for 24 hrs followed by compound washout and measured after 12 hrs by Western blot analysis relative to control; type: cell-based
[11] = target: T1, von Hippel-Lindau disease tumor suppressor/Vascular endothelial growth factor receptor 2; test: PROTAC activity at VHL/VEGFR2 in human HGC-27 cells assessed as induction of VEGRF2 protein degradation at 1 uM preincubated with VH032 for 2 hrs followed by compound addition and measured after 24 hrs by Western blot analysis; type: cell-based
[12] = target: T1, von Hippel-Lindau disease tumor suppressor/Vascular endothelial growth factor receptor 2; test: PROTAC activity at VHL/VEGFR2 in human HGC-27 cells assessed as reduction in relative VEGRF2 expression level at 1 uM preincubated with 4-Amino-N-(6-(1-(2-((4-methyl-3-(trifluoromethyl)phenyl)amino)-2-oxoethyl)-1H-pyrazol-4-y1)-1H-indazol-3-Abenzamide for 2 hrs followed by compound addition and measured after 24 hrs by Western blot analysis; type: cell-based
[13] = target: T1, von Hippel-Lindau disease tumor suppressor/Vascular endothelial growth factor receptor 2; test: PROTAC activity at VHL/VEGFR2 in human HGC-27 cells assessed as induction of VEGRF2 protein degradation at 1 uM preincubated with MLN4924 for 2 hrs followed by compound addition and measured after 24 hrs by Western blot analysis; type: cell-based
[14] = target: T1, von Hippel-Lindau disease tumor suppressor/Vascular endothelial growth factor receptor 2; test: PROTAC activity at VHL/VEGFR2 in human HGC-27 cells assessed as reduction in relative VEGRF2 expression level at 1 uM preincubated with MLN4924 for 2 hrs followed by compound addition and measured after 24 hrs by Western blot analysis; type: cell-based
[15] = target: T1, von Hippel-Lindau disease tumor suppressor/Vascular endothelial growth factor receptor 2; test: PROTAC activity at VHL/VEGFR2 in human HGC-27 cells assessed as reduction in VEGFR2 protein expression at 1 uM measured upto 24 hrs in the presence of cycloheximide by Western blot analysis; type: cell-based
[16] = target: T1, von Hippel-Lindau disease tumor suppressor/Vascular endothelial growth factor receptor 2; test: PROTAC activity at VHL/VEGFR2 in human HGC-27 cells assessed as […] at 1 uM measured upto 24 hrs in the presence of cycloheximide by Western blot analysis; type: cell-based
[17] = target: T1, von Hippel-Lindau disease tumor suppressor/Vascular endothelial growth factor receptor 2; test: PROTAC activity at VHL/VEGFR2 in human HGC-27 cells assessed as half-life of intracellular VEGFR2 protein […] at 1 uM measured upto 24 hrs in the presence of cycloheximide by Western blot analysis (reference value: 5.45 hrs); type: cell-based
[18] = Effect on VEGFR2 mRNA expression in human HGC-27 cells at 0.33 uM incubated for 24 hrs by qPCR analysis relative to control; type: functional
[19] = Effect on VEGFR2 mRNA expression in human HGC-27 cells at 1 uM incubated for 24 hrs by qPCR analysis relative to control; type: functional
[20] = system: HGC-27; test: Inhibition of cell migration in human HGC-27 cells assessed as suppression of cell migration at 3.3 uM incubated for 6 hrs by wound healing assay relative to control; type: functional
[21] = system: HGC-27; test: Antiinvasive activity in human HGC-27 cells assessed as reduction in number of invasive cells at 1 uM incubated for 24 hrs by transwell invasion assay (reference value: 118); type: functional
[22] = system: HGC-27; test: Antiinvasive activity in human HGC-27 cells assessed as reduction in number of invasive cells at 3.33 uM incubated for 24 hrs by transwell invasion assay (reference value: 118); type: functional
[23] = system: HGC-27; test: Induction of apoptosis in human HGC-27 cells assessed as viable cells at 0.033 uM incubated for 24 hrs by Annexin V-FITC/PI staining based analysis (reference value: 95.3%); type: functional; conditions: read-out: Activity
[24] = system: HGC-27; test: Induction of apoptosis in human HGC-27 cells assessed as late apoptotic cells at 0.33 uM incubated for 24 hrs by Annexin V-FITC/PI staining based analysis (reference value: 3%); type: functional
[25] = system: HGC-27; test: Induction of apoptosis in human HGC-27 cells assessed as viable cells at 3.3 uM incubated for 24 hrs by Annexin V-FITC/PI staining based analysis (reference value: 95.3%); type: functional; conditions: read-out: Activity
[26] = system: HGC-27; test: Induction of cell cycle arrest in human HGC-27 cells assessed as G0/G1 phase cells at 0.033 uM incubated for 24 hrs by PI staining based flow cytometric analysis (reference value: 47.4%); type: functional
[27] = system: HGC-27; test: Induction of cell cycle arrest in human HGC-27 cells assessed as G2/M phase cells at 0.033 uM incubated for 24 hrs by PI staining based flow cytometric analysis (reference value: 13.3%); type: functional
[28] = system: HGC-27; test: Induction of cell cycle arrest in human HGC-27 cells assessed as G2/M phase cells at 0.1 uM incubated for 24 hrs by PI staining based flow cytometric analysis (reference value: 13.3%); type: functional
[29] = system: HGC-27; test: Induction of cell cycle arrest in human HGC-27 cells assessed as S phase cells at 0.33 uM incubated for 24 hrs by PI staining based flow cytometric analysis (reference value: 26.4%); type: functional
[30] = system: HGC-27; test: Induction of cell cycle arrest in human HGC-27 cells assessed as G0/G1 phase cells at 3.33 uM incubated for 24 hrs by PI staining based flow cytometric analysis (reference value: 47.4%); type: functional
[31] = system: HGC-27; test: Induction of cell cycle arrest in human HGC-27 cells assessed as G2/M phase cells at 3.33 uM incubated for 24 hrs by PI staining based flow cytometric analysis (reference value: 13.3%); type: functional

- Emax [3]: 73.7%
- Activity [4]: Dose-Dependent Effect
- EC50 [4]: 0.51 µM
- Emax [5]: 76.6%
- Activity [6]: Tde
- Activity [7]: 33.3%
- Activity [8]: 51.4%
- Activity [9]: 60.6%
- Activity [10]: 66.3%
- Activity [11]: inactive
- Activity [12]: inactive
- Activity [13]: inactive
- Activity [14]: inactive
- Activity [15]: Active
- Activity [16]: Active
- T1/2 [17]: 5.45 h
SMILES: Cc1ccc(NC(=O)Cn2cc(-c3ccc4c(NC(=O)c5ccc(NC(=O)CCCCCCCCC(=O)N[C@H](C(=O)N6C[C@H](O)C[C@H]6C(=O)NCc6ccc(-c7scnc7C)cc6)C(C)(C)C)cc5)n[nH]c4c3)cn2)cc1C(F)(F)F
- IC50 at 72 h [1]: 14.5 µM
- IC50 at 72 h [2]: 20 µM
- Activity [18]: 83%
- Activity [19]: 91.3%
- inhibition at 3.3 µM [20]: 12.3%
- Activity [21]: 11
- Activity [22]: 4
- viability at 0.033 µM [23]: 93%
- Activity [24]: 6.7%
- viability at 3.3 µM [25]: 54%
- Activity [26]: 41.1%
- Activity [27]: 15.7%
- Activity [28]: 18.2%
- Activity [29]: 23.4%
- Activity [30]: 14.1%
- Activity [31]: 56.8%

Source: ChEMBL document CHEMBL5247592, “Discovery of novel VEGFR-2-PROTAC degraders based on the localization of lysine residues via recruiting VHL for the treatment of gastric cancer” (Eur J Med Chem, 2022)
